Results taken from patent US12162857B2, “Antiviral compounds” (priority 2022, dated 2024).

Tested on: HMPV A2 TN/94-49
Test: HMPV antiviral assay: LLC-MK2 cells, ATP-Lite readout
Assay type: cell-based
Settings: LLC-MK2, 168 h, MOI 0.005, 7 days incubation
Description: In vitro HMPV antiviral activity was evaluated using the clinical isolate A2 strain TN 94-49 and LLC-MK2 cells (ATCC #CCL-7), an immortalized kidney epithelial cell line from Macaca mulatta. Compounds were resuspended in dimethyl sulfoxide (DMSO) at 10 mM, serially diluted and added to a 384-well source plate. Subsequently, the compounds were diluted and transferred onto 384-well assay plates using the Echo-650 automated liquid handling system (Beckman Coulter, Indiana). The test compounds were assessed in duplicate at a top concentration of 2 μM followed by 2.5-fold serial dilutions to give a total of 10 concentration points. DMSO control wells were also included on the assay plates and were either infected or not, acting as positive and negative controls. A2 TN 94-49 virus infections were performed in-suspension with LLC-MK2 cells. The cells were washed twice with PBS and removed from the cell-culture flask with 0.25% trypsin-EDTA (Thermo Fisher Scientific, MA). The trypsin-EDTA was inactivated by resuspending in 2% fetal bovine serum (FBS) and OptiMEM (ThermoFisher Scientific, MA) containing 1% penicillin-streptomycin. Cells were pelleted by centrifuging for 5 minutes at 800 rpm, the supernatant was removed, and cells were re-suspended and washed in PBS plus 100 μg/mL CaCl2). This step was performed twice. Cells were then re-suspended in serum-free (SF)-OptiMEM containing 4 μg/mL TPCK-Trypsin (Sigma Aldrich, MO), 1% penicillin-streptomycin (ThermoFisher Scientific, MA) and 100 μg/mL CaCl2). Cells were counted and seeded at a density of 5,000 cells/well, 12.5 μL/well. Virus infections were done at a multiplicity of infection (MOI) of 0.005 with 12.5 μL added per well. Virus infections were performed in infection media which contained SF-OptiMEM, 100 μg/mL CaCl2) and 1% penicillin-streptomycin. HMPV viral stocks are suspended in infection media+5% glycerol, thus an equal volume of infection media+5% glycerol was added to uninfected wells to equalize the final % glycerol across all wells of the assay plate. The final concentration of TPCK-trypsin was 2 μg/mL. The assay plates were incubated at 37° C., 5% CO2 for 7 days. After 7 days incubation, 12.5 μL of ATP-Lite (PerkinElmer, MA) was added to each well and the raw luminescence values were determined using the Envision 2104 (Perkin Elmer, MA). The average of the raw luminescence values for the cells and virus only positive control wells was subtracted from all conditions tested and the percent cell health was determined by dividing these values by the average of the cells only negative control wells. EC50 values were then calculated by non-linear regression using a four-parameter curve logistic equation. The curve fit model employed was XLFit Dose Response One Site Model 200: y=(A+(B/(1+((x/C)^D)))), where A is the minimum y value, B is the maximum y value, C is the log EC50 value, and D is the slope factor. […] EC50 ranges are as follows: A<1 μM; B>1 μM.

| Structure (SMILES) | EC50 |
| --- | --- |
| CC(C)(O)c1cc([C@@](O)(CNC(=O)c2cc(Cl)c3nn(C4CC4)cc3c2)c2ccccc2)nc(-c2ccc3c(c2Cl)OC(F)(F)O3)c1F [Example 75] | > 1 µM |
| COc1cc(C(=O)NC[C@](O)(c2cc(C(C)(C)F)c(F)c(-c3cc(Cl)c(F)cc3F)n2)C2CC2)cc2cn(C(F)F)nc12 [Example 179] | > 1 µM |
| COc1cc(C(=O)NC[C@@](O)(c2ccccc2)c2cc(C(C)(C)O)c(F)c(-c3ccc4c(c3Cl)OC(F)(F)O4)n2)cc2sc(C)nc12 [Example 73] | < 1 µM |
| COc1cc(C(=O)NC[C@@](O)(c2ccccc2)c2cc(C(C)(C)O)c(F)c(-c3cccc(Cl)c3Cl)n2)cc2sc(C)nc12 [Example 78] | < 1 µM |
| COc1cc(C(=O)NC[C@@](O)(c2ccccc2)c2cc(C(C)(C)O)c(Cl)c(-c3ccc4c(c3Cl)OC(F)(F)O4)n2)cc2cc(C3CC3)nn12 [Example 155] | < 1 µM |
| COc1cc(C(=O)NC[C@@](O)(c2ccccc2)c2cc(C(C)(C)O)cc(-c3ccc4c(c3Cl)OC(F)(F)O4)n2)cc2sc(C)nc12 [Example 157] | < 1 µM |
| COc1cc(C(=O)NC[C@@](O)(c2ccccc2)c2cc(C(C)(C)O)c(F)c(-c3cc(Cl)c(F)cc3F)n2)cc2cn(C3CC3)nc12 [Example 60] | < 1 µM |
| CC(C)(O)c1cc([C@@](O)(CNC(=O)c2cc(Cl)c3nn(C4CC4)cc3c2)c2ccccc2)nc(-c2ccc3c(c2Cl)OC(F)(F)O3)c1Cl [Example 137] | > 1 µM |
| COc1cc(C(=O)NC[C@@](O)(c2cccc(F)c2)c2cc(C(C)(C)O)c(F)c(-c3ccc(F)c(Cl)c3Cl)n2)cc2cc(C3CC3)nn12 [Example 106] | > 1 µM |
| COc1cc(C(=O)NC[C@@](O)(c2ccccc2)c2cc(C(C)(C)O)c(F)c(-c3ccc(F)c(Cl)c3F)n2)cc2cn(C3(F)CC3)nc12 [Example 124] | < 1 µM |
| CC(C)(O)c1cc([C@@](O)(CNC(=O)c2cc(Cl)c3nn(C4CC4)cc3c2)c2ccccc2)nc(-c2ccc(F)c(Cl)c2Cl)c1F [Example 68] | < 1 µM |
| COc1cc(C(=O)NC[C@@](O)(c2ccccc2)c2cc(C(=O)NCC(C)(C)O)c(F)c(-c3cc(Cl)c(F)cc3F)n2)cc2cn(C3CC3)nc12 [Example 193] | > 1 µM |
| COc1cc(C(=O)NC[C@@](O)(c2cccc(F)c2)c2cc(C(C)(C)O)c(F)c(-c3cccc(Cl)c3Cl)n2)cc2sc(C)nc12 [Example 102] | < 1 µM |
| COc1cc(C(=O)NC[C@@](O)(c2cccc(F)c2)c2cc(C(C)(C)O)c(F)c(-c3cc(Cl)c(F)cc3F)n2)cc2cc(C3CC3)nn12 [Example 93] | < 1 µM |
| COc1cc(C(=O)NC[C@@](O)(c2ccccc2)c2cc(C(C)(C)O)cc(-c3ccc(F)c(Cl)c3Cl)n2)cc2cn(C3CC3)nc12 [Example 152] | < 1 µM |
| COc1cc(C(=O)NC[C@@](O)(c2ccccc2)c2cc(C(C)(C)O)c(F)c(-c3cccc(Cl)c3Cl)n2)cc2cc(C3CC3)nn12 [Example 81] | < 1 µM |
| CC(C)(O)c1cc(-c2ccc(F)c(Cl)c2Cl)nc([C@@](O)(CNC(=O)c2cc(Cl)c3nn(C4CC4)cc3c2)c2ccccc2)c1 [Example 153] | < 1 µM |
| COc1cc(C(=O)NC[C@@](O)(c2ccccc2)c2cc(C(C)(C)O)c(F)c(-c3ccc(F)c(F)c3F)n2)cc2cn(C3CC3)nc12 [Example 84] | < 1 µM |
| CC(C)(O)c1cc([C@@](O)(CNC(=O)c2cc(Cl)c3nn(C4CC4)cc3c2)c2cccc(F)c2)nc(-c2ccc3c(c2Cl)OC(F)(F)O3)c1F [Example 110] | > 1 µM |
| COc1cc(C(=O)NC[C@@](O)(c2ccccc2)c2cc(C(C)(C)O)cc(-c3cccc(Cl)c3Cl)n2)cc2sc(C)nc12 [Example 147] | < 1 µM |
| CCC(O)(CC)c1cc([C@@](O)(CNC(=O)c2cc(OC)c3nn(C4CC4)cc3c2)c2ccccc2)nc(-c2cc(Cl)c(F)cc2F)c1F [Example 116] | < 1 µM |
| COc1cc(C(=O)NC[C@](O)(c2cc(C3(O)COC3)c(F)c(-c3ccc(F)cc3)n2)C2CC2)cc2cn(C3CC3)nc12 [Example 166] | > 1 µM |
| COc1cc(C(=O)NC[C@](O)(c2cc(C(C)(C)O)c(F)c(-c3cc(Cl)c(F)cc3F)n2)c2cccs2)cc2cn(C(F)F)nc12 [Example 114] | < 1 µM |

| Structure (SMILES) | EC50 |
| --- | --- |
| COc1cc(C(=O)NC[C@@](O)(c2cccc(F)c2)c2cc(C(C)(C)O)c(F)c(-c3cc(F)c(F)cc3F)n2)cc2cn(C3CC3)nc12 [Example 96] | < 1 µM |
| COc1cc(C(=O)NC[C@@](O)(c2ccccc2)c2cc(C(C)(C)O)c(F)c(-c3ccc(F)c(Cl)c3Cl)n2)cc2sc(C)nc12 [Example 71] | < 1 µM |
| CC(C)(O)c1cc([C@@](O)(CNC(=O)c2cc(OC3CC3)c3nn(C4CC4)cc3c2)c2ccccc2)nc(-c2ccc(F)c(Cl)c2F)c1F [Example 125] | < 1 µM |
| COc1cc(C(=O)NC[C@@](O)(c2ccccc2)c2cc(C(=O)Nc3ncco3)c(F)c(-c3cc(Cl)c(F)cc3F)n2)cc2cn(C3CC3)nc12 [Example 191] | > 1 µM |
| CCC(O)(CC)c1cc([C@@](O)(CNC(=O)c2cc(OC)c3nn(C(F)F)cc3c2)c2ccccc2)nc(-c2cc(Cl)c(F)cc2F)c1F [Example 117] | > 1 µM |
| COc1cc(C(=O)NC[C@@](O)(c2cccc(F)c2)c2cc(C(C)(C)O)c(F)c(-c3ccc(F)c(Cl)c3Cl)n2)cc2sc(C)nc12 [Example 107] | < 1 µM |
| COc1cc(C(=O)NC[C@@](O)(c2ccccc2)c2cc(C(C)(C)O)c(F)c(-c3ccc(F)c(Cl)c3F)n2)cc2cn(C(F)F)nc12 [Example 122] | < 1 µM |
| CC(C)(O)c1cc([C@@](O)(CNC(=O)c2cc(Cl)c3nn(C4CC4)cc3c2)c2ccccc2)nc(-c2cccc(Cl)c2Cl)c1Cl [Example 141] | > 1 µM |
| COc1cc(C(=O)NC[C@@](O)(c2ccccc2)c2cc(N3CC[C@H](O)C3)cc(-c3cc(Cl)c(F)cc3F)n2)cc2cn(C3CC3)nc12 [Example 198] | > 1 µM |
| COc1cc(C(=O)NC[C@@](O)(c2ccccc2)c2cc(C(C)(C)O)cc(-c3ccc4c(c3Cl)OC(F)(F)O4)n2)cc2cn(C3CC3)nc12 [Example 156] | < 1 µM |
| COc1cc(C(=O)NC[C@@](O)(c2cccc(F)c2)c2cc(C(C)(C)O)c(F)c(-c3ccc4c(c3Cl)OC(F)(F)O4)n2)cc2cn(C(F)F)nc12 [Example 111] | < 1 µM |
| CC(C)(C(N)=O)c1cc([C@@](O)(CNC(=O)c2cc(Cl)c3nn(C4CC4)cc3c2)c2ccccc2)nc(-c2cc(Cl)c(F)cc2F)c1F [Example 162] | < 1 µM |
| COc1cc(C(=O)NC[C@](O)(c2cc(C(C)(C)O)c(F)c(-c3cc(Cl)c(F)cc3F)n2)c2cccs2)cc2sc(C)nc12 [Example 115] | < 1 µM |
| COc1cc(C(=O)NC[C@](O)(c2cc(C(C)(C)O)c(F)c(-c3cc(Cl)c(F)cc3F)n2)C2CC2)cc2cn(C(F)F)nc12 [Example 54] | < 1 µM |
| COc1cc(C(=O)NC[C@@](O)(c2ccccc2)c2cc(C(C)(C)O)c(F)c(-c3ccc(F)c(Cl)c3Cl)n2)cc2cc(C3CC3)nn12 [Example 69] | < 1 µM |
| COc1cc(C(=O)NC[C@@](O)(c2ccccc2)c2nc(-c3cc(Cl)c(F)cc3F)c(F)c(C(C)(C)O)c2F)cc2cc(C3CC3)nn12 [Example 129] | < 1 µM |
| CC(C)(O)c1cc([C@@](O)(CNC(=O)c2cc(OC3CC3)c3nn(C4CC4)cc3c2)C2CC2)nc(-c2ccc(F)c(Cl)c2F)c1F [Example 121] | < 1 µM |
| COc1cc(C(=O)NC[C@@](O)(c2ccccc2)c2cc(C(C)(C)O)c(F)c(-c3cc(F)ccc3F)n2)cc2cn(C3CC3)nc12 [Example 83] | > 1 µM |
| COc1cc(C(=O)NC[C@@](O)(c2ccccc2)c2cc(C(=O)Nc3ncc[nH]3)c(F)c(-c3cc(Cl)c(F)cc3F)n2)cc2cn(C3CC3)nc12 [Example 190] | > 1 µM |
| COc1cc(C(=O)NC[C@@](O)(c2cccc(F)c2)c2cc(C(C)(C)O)c(F)c(-c3cc(Cl)c(F)cc3F)n2)cc2sc(C)nc12 [Example 89] | < 1 µM |
| CC(C)(O)c1cc([C@@](O)(CNC(=O)c2cc(Cl)c3nn(C4CC4)cc3c2)c2ccccc2)nc(-c2ccc3c(c2)OC(F)(F)O3)c1F [Example 77] | > 1 µM |
| COc1cc(C(=O)NC[C@](O)(c2cc(C(C)(C)O)c(F)c(-c3cc(Cl)c(F)cc3F)n2)C2CC2)cc2cn(C3(F)CC3)nc12 [Example 53] | < 1 µM |
| COc1cc(C(=O)NC[C@@](O)(c2ccccc2)c2cc(N3C(=O)CC[C@H]3C(N)=O)cc(-c3cc(Cl)c(F)cc3F)n2)cc2cn(C3CC3)nc12 [Example 196] | > 1 µM |
